Laboratory results taken from patent publication US4257941A, “Polycyclic nitrogen-containing compounds” (BASF Aktiengesellschaft, priority 1976, dated 1981).

How the values were obtained:
spring barley = experiment: Stem length, lateral shoots and yield in spring barley (Example 12); assay type: in vivo; conditions: for Ear weight relative / No. of lateral shoots relative / Stem length relative: control 100
Procedure: To examine the effect of the various substances on spring barley up to the maturity stage of the plants, an experiment was carried out in large pots. The plants were grown in quartz sand (fertilized with 2 g N as ammonium nitrate in 3 doses, 1 g P2 O5 as secondary sodium phosphate, 1.5 g K2 O as potassium sulfate, 0.5 g MgO as magnesium sulfate, 10 ml of a solution of trace elements, and 10 mg of iron as an iron complex). […] The treated plants were up to 10% shorter than the control, and yields were also slightly up.

Euphorbia geniculata = experiment: Growth-regulating action, preemergence, greenhouse (Example 35, Table 2); assay type: in vivo; conditions: for growth height relative: control 100
From the text: The vessels used for the experiments were plastic pots having a volume of 1,130 cm^3 (Table A) or paraffined paper cups having a volume of 170 cm^3 (Table B). The pots and cups were filled with a sandy loam. The seeds of the test plants-separated by species-were sown shallow. Preemergence treatment (soil treatment) was effected immediately after sowing and before germination of the seeds. Seeds lying on the surface came into contact with the active ingredients. Postemergence treatment (leaf treatment) took place at an average growth height of the plants (depending on the rate of growth) of from 6 to 10 cm. The substances were suspended, emulsified or dissolved in water as diluent and applied by means of fine nozzles. The vessels were kept in the greenhouse in a temperature range of 12° C. to 25° C., and were regularly sprinkler irrigated for the duration of the experiment. The observation period was 6 to 8 weeks.
Further experiments were carried out in the greenhouse under the condition described in Example 11. […] As the plants which were examined liked the warmth (Eupghorbia geniculate, Arachis hypogaea, Cynodon dactylon), they were kept at from 20°-30° C. Cynodon dactylon from seed was cut once and the young growth treated postemergence.

Clc1ccc(N2N=NC3C4CC(C5N=NC45)C32)cc1 (stereo not drawn) [drawing 377]
Ear weight (spring barley; 0.5 kg/ha): 91.5 g | No. of lateral shoots (spring barley; 0.5 kg/ha): 105 | Stem length (spring barley; 0.5 kg/ha): 74.1 cm | Ear weight relative (spring barley; 0.5 kg/ha): 101.2 | No. of lateral shoots relative (spring barley; 0.5 kg/ha): 112.9 | Stem length relative (spring barley; 0.5 kg/ha): 96.4 | Ear weight (spring barley; 1.5 kg/ha): 94.8 g | No. of lateral shoots (spring barley; 1.5 kg/ha): 111 | Stem length (spring barley; 1.5 kg/ha): 69.7 cm | Ear weight relative (spring barley; 1.5 kg/ha): 104.9 | No. of lateral shoots relative (spring barley; 1.5 kg/ha): 119.4 | Stem length relative (spring barley; 1.5 kg/ha): 90.6

FC(F)(F)c1cccc(N2C3C4CC(C5N=NC45)C32)c1 (stereo not drawn) [drawing 438]
Growth height (Euphorbia geniculata; 0.25 kg/ha): 6 cm | growth height relative (Euphorbia geniculata; 0.25 kg/ha): 54 | Growth height (Euphorbia geniculata; 0.5 kg/ha): 5 cm | growth height relative (Euphorbia geniculata; 0.5 kg/ha): 45 | Growth height (Euphorbia geniculata; 1.0 kg/ha): 3 cm | growth height relative (Euphorbia geniculata; 1.0 kg/ha): 27

CN(C)NC(=O)CCC(=O)O [drawing 439]
Growth height (Euphorbia geniculata; 0.25 kg/ha): 12 cm | growth height relative (Euphorbia geniculata; 0.25 kg/ha): 109 | Growth height (Euphorbia geniculata; 0.5 kg/ha): 12 cm | growth height relative (Euphorbia geniculata; 0.5 kg/ha): 109 | Growth height (Euphorbia geniculata; 1.0 kg/ha): 10 cm | growth height relative (Euphorbia geniculata; 1.0 kg/ha): 91
